These are literature values, as cited in patent US20220401389A1, “TRANSMUCOSAL THERAPEUTIC SYSTEM CONTAINING AGOMELATINE” (LTS LOHMANN Therapie-Systeme AG, priority 2019, published 2022).

Where only a bound is given, the exact number is not on record here.

Setting [1] is: patients with moderate hepatic impairment compared to healthy subjects.

As to `COc1ccc2cccc(CCNC(C)=O)c2c1` [agomelatine, N-(2-(7-Methoxy-1-naphthyl)ethyl)acetamide], for the setting “oral”, the oral absorption is > 80% and the overall bioavailability result is on record as “less than 5%”. Besides, under setting [1], the “increase of AUC” value was “up to 140 fold” and the increase of cmax result is “up to 140 fold”.
